For 24 molecules, IC50 results are on record in US9765092B2, “Tricyclic piperidine compounds” (ACTELION PHARMACEUTICALS LTD, priority 2013, dated 2017).

Structures are written as SMILES.

For orientation: IC50 means the point on the concentration scale where inhibition reaches its midpoint. Low values mean greater potency, high ones weaker potency.

Sequence of human TPH1 (P17752 whole entry): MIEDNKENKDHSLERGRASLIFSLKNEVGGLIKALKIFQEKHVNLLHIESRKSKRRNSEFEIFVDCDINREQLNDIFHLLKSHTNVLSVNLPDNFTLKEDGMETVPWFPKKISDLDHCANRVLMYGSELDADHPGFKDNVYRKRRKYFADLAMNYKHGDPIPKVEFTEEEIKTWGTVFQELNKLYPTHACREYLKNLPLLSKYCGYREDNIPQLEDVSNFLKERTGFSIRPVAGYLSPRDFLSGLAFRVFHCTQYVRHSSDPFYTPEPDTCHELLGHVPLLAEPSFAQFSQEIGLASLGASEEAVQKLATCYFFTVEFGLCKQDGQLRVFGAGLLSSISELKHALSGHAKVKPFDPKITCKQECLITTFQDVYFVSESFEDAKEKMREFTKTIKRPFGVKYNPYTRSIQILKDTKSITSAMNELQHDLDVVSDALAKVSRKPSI

One assay has as its target human TPH1 (Homo sapiens (Human), UniProt P17752). As to the kind of experiment: Biochemical in vitro assay using fluorescence readout (TPH1 inhibition).
Conditions: not given
Molecule `Cc1ccc(C2c3c(nc4sc(C)nn34)CCN2C(=O)COc2ccc(NS(C)(=O)=O)nc2Cl)c(F)c1` (stereo not drawn) [Example 1.53.2, N-(6-chloro-5-(2-(5-(2-fluoro-4-methylphenyl)-2-methyl-7,8-dihydro-[1,3,4]thiadiazolo[2′,3′:2,3]imidazo[4,5-c]pyridin-6(5H)-yl)-2-oxoethoxy)pyridin-2-yl)methanesulfonamide] returned an IC50 of 12 nM.
`CCc1nc(N2CCCS2(=O)=O)ccc1OCC(=O)N1CCc2nc3sc(C(F)(F)F)nn3c2C1c1ccc(Cl)cc1F` (stereo not drawn) [Example 5.1.3, 1-(5-(4-chloro-2-fluorophenyl)-2-(trifluoromethyl)-7,8-dihydro-[1,3,4]thiadiazolo[2′,3′:2,3]imidazo[4,5-c]pyridin-6(5H)-yl)-2-((6-(1,1-dioxidoisothiazolidin-2-yl)-2-ethylpyridin-3-yl)oxy)ethanone] came in with an IC50 of 10 nM.

Staying with this assay, now noted: full length human TPH1, 40 μM L-tryptophan, 15° C., 60 minutes, fluorescence at 540 nm; mean if determined several times.
The molecule `Cc1nn2c3c(nc2s1)CCN(C(=O)COc1ccc(N2C[C@@H](C)C[C@H](C)C2)nc1Cl)C3c1ccc(Cl)cc1F` (stereo partly drawn) [Example 1.4.20, 1-(5-(4-Chloro-2-fluorophenyl)-2-methyl-7,8-dihydro-[1,3,4]thiadiazolo[2′,3′:2,3]imidazo[4,5-c]pyridin-6(5H)-yl)-2-((2-chloro-6-((3S,5S)-3,5-dimethylpipe-ridin-1-yl)pyridin-3-yl)oxy)ethanone] yielded an IC50 of 3 nM.
On the same count and under the same terms, next, `Cc1nn2c3c(nc2s1)CCN(C(=O)COc1ccc(N2CCC(F)(F)C2)nc1Cl)C3c1ccc(Cl)cc1F` (stereo not drawn) [Example 1.4.37, 1-(5-(4-Chloro-2-fluorophenyl)-2-methyl-7,8-dihydro-[1,3,4]thiadiazolo[2′,3′:2,3]imidazo[4,5-c]pyridin-6(5H)-yl)-2-((2-chloro-6-(3,3-difluoropyrrolidin-1-yl)pyridin-3-yl)oxy)ethanone]: 3 nM.
Molecule `Cc1nn2c3c(nc2s1)CCN(C(=O)COc1ccc(N2CCCC2=O)nc1Cl)C3c1ccc(Cl)cc1F` (stereo not drawn) [Example 1.4.17, 1-(6-Chloro-5-(2-(5-(4-chloro-2-fluorophenyl)-2-methyl-7,8-dihydro-[1,3,4]thiadiazolo[2′,3′:2,3]imidazo[4,5-c]pyridin-6(5H)-yl)-2-oxoethoxy)pyridin-2-yl)pyrrolidin-2-one] returned a 50% inhibitory concentration (IC50) of 2 nM.
Molecule `Cc1nn2c3c(nc2s1)CCN(C(=O)COc1ccc(N2CCNCC2=O)nc1Cl)C3c1ccc(Cl)cc1F` (stereo not drawn) [Example 1.4.35, 1-(6-chloro-5-(2-(5-(4-chloro-2-fluorophenyl)-2-methyl-7,8-dihydro-[1,3,4]thiadiazolo[2′,3′:2,3]imidazo[4,5-c]pyridin-6(5H)-yl)-2-oxoethoxy)pyridin-2-yl)piperazin-2-one] showed an IC50 of 6 nM.

Staying with this assay, now noted: human TPH1, fluorescence readout.
In the case of `CCc1nc(NS(C)(=O)=O)ccc1OCC(=O)N1CCc2nc3sc(C)nn3c2C1c1ccc(Cl)cc1F` (stereo not drawn) [Example 1.4.51, N-(5-(2-(5-(4-chloro-2-fluorophenyl)-2-methyl-7,8-dihydro-[1,3,4]thiadiazolo[2′,3′:2,3]imidazo[4,5-c]-pyridin-6(5H)-yl)-2-oxoethoxy)-6-ethylpyridin-2-yl)methanesulfonamide], the IC50 was determined as 12 nM.
The molecule `CCc1nc(C)ccc1OCC(=O)N1CCc2nc3sc(C)nn3c2C1c1cnc(C2CC2)nc1` (stereo not drawn) [Example 1.10.1, 1-(5-(2-cyclopropylpyrimidin-5-yl)-2-methyl-7,8-dihydro-[1,3,4]thiadiazolo[2′,3′:2,3]imidazo[4,5-c]pyridin-6(5H)-yl)-2-((2-ethyl-6-methylpyridin-3-yl)oxy)ethanone] registered an IC50 of 187 nM.
`Cc1nn2c3c(nc2s1)CCN(C(=O)COc1ccc(I)nc1Cl)C3c1ccc(Cl)cc1F` (stereo not drawn) [Example 1.4.10, 1-(5-(4-chloro-2-fluorophenyl)-2-methyl-7,8-dihydro-[1,3,4]thiadiazolo[2′,3′:2,3]imidazo[4,5-c]pyridin-6(5H)-yl)-2-((2-chloro-6-iodopyridin-3-yl)oxy)ethanone] displayed an IC50 of 8 nM.
On the same count and under the same terms, as for `CCc1nc(NS(C)(=O)=O)ccc1OCC(=O)N1CCc2nc3sc(C(F)(F)F)nn3c2C1c1ccc(Cl)cc1F` (stereo not drawn) [Example 5.1.2, N-(5-(2-(5-(4-chloro-2-fluorophenyl)-2-(trifluoromethyl)-7,8-dihydro-[1,3,4]thiadiazolo[2′,3′:2,3]imidazo[4,5-c]pyridin-6(5H)-yl)-2-oxoethoxy)-6-ethylpyridin-2-yl)methanesulfonamide], the figure is 32 nM; as for `Cc1nn2c3c(nc2s1)CCN(C(=O)COc1cc(F)cnc1Cl)C3c1ncc(C2CC2)cc1F` (stereo not drawn) [Example 1.14.7, 2-((2-chloro-5-fluoropyridin-3-yl)oxy)-1-(5-(5-cyclopropyl-3-fluoropyridin-2-yl)-2-methyl-7,8-dihydro-[1,3,4]thiadiazolo [2′,3′:2,3]imidazo[4,5-c]pyridin-6(5H)-yl)ethanone], 25 nM.
Same read-out and setting: next, `Cc1nn2c3c(nc2s1)CCN(C(=O)COc1ccc(C(=O)N(C)C)nc1Cl)C3c1ccc(C2CC2)cc1F` (stereo not drawn) [Example 1.6.25, 6-chloro-5-(2-(5-(4-cyclopropyl-2-fluorophenyl)-2-methyl-7,8-dihydro-[1,3,4]thiadiazolo[2′,3′:2,3]imidazo[4,5-c]pyridin-6(5H)-yl)-2-oxoethoxy)-N,N-dimethylpicolinamide]: 4 nM; `O=C(COc1ccc(-c2ncco2)nc1Cl)N1CCc2nc3sc(C4CC4)nn3c2C1c1ccc(Cl)cc1F` (stereo not drawn) [Example 4.1.3, 1-(5-(4-chloro-2-fluorophenyl)-2-cyclopropyl-7,8-dihydro-[1,3,4]thiadiazolo[2′,3′:2,3]imidazo[4,5-c]pyridin-6(5H)-yl)-2-((2-chloro-6-(oxazol-2-yl)pyridin-3-yl)oxy)ethanone]: 13 nM.
On to `Cc1cc(Cl)ccc1OCC(=O)N1CCc2nc3sccn3c2C1c1cnn(-c2ccccc2)c1` (stereo not drawn) [Example 6.13.7, 2-(4-chloro-2-methylphenoxy)-1-(5-(1-phenyl-1H-pyrazol-4-yl)-7,8-dihydrothiazolo[2′,3′:2,3]imidazo[4,5-c]pyridin-6(5H)-yl)ethanone], for which the IC50 amounted to 26 nM.
Turning to `O=C(COc1ccc(CN2CCOCC2)nc1Cl)N1CCc2nc3sccn3c2C1c1cccnc1F` (stereo not drawn) [Example 6.2.7, ((2-chloro-6-(morpholinomethyl)pyridin-3-yl)oxy)-1-(5-(2-fluoropyridin-3-yl)-7,8-dihydrothiazolo[2′,3′:2,3]-imidazo[4,5-c]pyridin-6(5H)-yl)ethanone], it took 235 nM to reach half-maximal inhibition (IC50).
On the same count and under the same terms, next, `Cc1nn2c3c(nc2s1)CCN(C(=O)COc1cc(F)c(N2CCOCC2)nc1Cl)C3c1ncc(C2CC2)cc1F` (stereo not drawn) [Example 1.14.9, 2-((2-chloro-5-fluoro-6-morpholinopyridin-3-yl)oxy)-1-(5-(5-cyclopropyl-3-fluoropyridin-2-yl)-2-methyl-7,8-dihydro-[1,3,4]thiadiazolo[2′,3′:2,3]imidazo[4,5-c]pyridin-6(5H)-yl)ethanone]: 4 nM; `CS(=O)(=O)Nc1ccc(OCC(=O)N2CCc3nc4sc(C5CC5)nn4c3C2c2ccc(Cl)cc2F)c(Cl)n1` (stereo not drawn) [Example 4.1.1, N-(6-chloro-5-(2-(5-(4-chloro-2-fluorophenyl)-2-cyclopropyl-7,8-dihydro-[1,3,4]thiadiazolo-[2′,3′:2,3]imidazo[4,5-c]pyridin-6(5H)-yl)-2-oxoethoxy)pyridin-2-yl)methanesulfonamide]: 16 nM; `Cc1nn2c3c(nc2s1)CCN(C(=O)COc1ccc(C(N)=O)nc1Cl)C3c1ncc(Cl)cc1F` (stereo not drawn) [Example 1.33.4, 6-chloro-5-(2-(5-(5-chloro-3-fluoropyridin-2-yl)-2-methyl-7,8-dihydro-[1,3,4]thiadiazolo[2′,3′:2,3]imidazo[4,5-c]pyridin-6(5H)-yl)-2-oxoethoxy)picolinamide]: 7 nM.
The molecule `O=C(COc1cccc(C(F)(F)F)c1Cl)N1CCc2nc3sccn3c2C1c1cnn(-c2ccccc2)c1` (stereo not drawn) [Example 6.13.1, 2-(2-chloro-3-(trifluoromethyl)phenoxy)-1-(5-(1-phenyl-1H-pyrazol-4-yl)-7,8-dihydrothiazolo[2′,3′:2,3]-imidazo[4,5-c]pyridin-6(5H)-yl)ethanone] gave an IC50 of 75 nM.
On the same count and under the same terms, next, `CCc1nc(N2CCCS2(=O)=O)ccc1OCC(=O)N1CCc2nc3sc(CF)nn3c2C1c1sc(C)nc1C` (stereo not drawn) [Example 7.4.3, 1-(5-(2,4-dimethylthiazol-5-yl)-2-(fluoromethyl)-7,8-dihydro-[1,3,4]thiadiazolo[2′,3′:2,3]imidazo[4,5-c]pyridin-6(5H)-yl)-2-((6-(1,1-dioxidoisothiazolidin-2-yl)-2-ethylpyridin-3-yl)oxy)ethanone]: 8 nM.
With `O=C(COc1cccnc1Cl)N1CCc2nc3sccn3c2C1c1cc2cccnc2s1` (stereo not drawn) [Example 6.14.3, 2-((2-chloropyridin-3-yl)oxy)-1-(5-(thieno[2,3-b]pyridin-2-yl)-7,8-dihydrothiazolo[2′,3′:2,3]imidazo[4,5-c]pyridin-6(5H)-yl)ethanone], the IC50 was determined as 67 nM.
The molecule `Cc1nn2c3c(nc2s1)CCN(C(=O)COc1ccc(N2CC(F)(F)C2)nc1Cl)C3c1sccc1F` (stereo not drawn) [Example 1.23.8, 2-((2-chloro-6-(3,3-difluoroazetidin-1-yl)pyridin-3-yl)oxy)-1-(5-(3-fluorothiophen-2-yl)-2-methyl-7,8-dihydro-[1,3,4]thiadiazolo[2′,3′:2,3]imidazo[4,5-c]pyridin-6(5H)-yl)ethanone] showed an IC50 of 6 nM.
As for `Cc1cnc(C2c3c(nc4sc(C)nn34)CCN2C(=O)COc2ccc(N3CCOCC3)nc2Cl)c(F)c1` (stereo not drawn) [Example 1.31.2, 2-((2-chloro-6-morpholinopyridin-3-yl)oxy)-1-(5-(3-fluoro-5-methylpyridin-2-yl)-2-methyl-7,8-dihydro-[1,3,4]thiadiazolo [2′,3′:2,3]imidazo[4,5-c]pyridin-6(5H)-yl)ethanone], the IC50 came to 5 nM.
Regarding `CCc1ncccc1OCC(=O)N1CCc2nc3sc(C)nn3c2C1c1cnc(N2CCOCC2)s1` (stereo not drawn) [Example 1.7.1, 2-((2-ethylpyridin-3-yl)oxy)-1-(2-methyl-5-(2-morpholinothiazol-5-yl)-7,8-dihydro-[1,3,4]thiadiazolo[2′,3′:2,3]imidazo[4,5-c]pyridin-6(5H)-yl)ethanone], the IC50 stood at 337 nM.
